Data taken from patent US10981894B2, “Melanocortin subtype-2 receptor (MC2R) antagonists and uses thereof” (Crinetics Pharmaceuticals, Inc., priority 2018, dated 2021).

Target: hMC2 receptor (Homo sapiens, UniProt Q01718)
Test: hMC2 membrane binding assay ([125I]ACTH (1-39) Tyr23, SPA)
Set-up: scale not given here
Conditions: crude hMC2R membranes from CRE-bla-CHO-K1 cells expressing hMC2 receptor and hMRAP; [125I]ACTH (1-39) Tyr23 0.2 nM; 1.5 hours at room temperature; read-out: MC2R binding potency
Outline: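 Ki comes from non-linear regression of SPA scintillation counts. Displacement of 0.2 nM [125I]ACTH(1-39) Tyr23 by compound dose series (usually 0–10,000 nM final) ran 1.5 h at room temperature. Membranes came from CHO-K1 CRE-bla cells stably expressing hMC2R plus hMRAP, bead-coupled in pH 7.4 buffer with 0.2% BSA.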

Chain of hMC2 receptor (Q01718 whole entry): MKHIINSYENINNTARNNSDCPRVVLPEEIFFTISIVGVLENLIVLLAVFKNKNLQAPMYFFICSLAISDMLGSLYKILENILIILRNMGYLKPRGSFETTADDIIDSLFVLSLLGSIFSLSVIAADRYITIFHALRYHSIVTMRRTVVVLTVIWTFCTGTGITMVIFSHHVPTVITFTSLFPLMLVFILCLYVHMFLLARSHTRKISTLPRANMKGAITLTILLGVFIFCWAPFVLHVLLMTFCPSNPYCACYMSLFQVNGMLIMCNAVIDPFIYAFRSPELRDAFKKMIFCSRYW
Chain of hMC2 receptor (Q8TCY5 whole entry partner): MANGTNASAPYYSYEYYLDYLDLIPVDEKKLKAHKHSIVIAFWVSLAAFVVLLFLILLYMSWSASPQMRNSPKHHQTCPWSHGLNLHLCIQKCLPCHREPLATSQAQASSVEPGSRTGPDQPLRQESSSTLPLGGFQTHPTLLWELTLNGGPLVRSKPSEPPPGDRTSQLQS

Ki, < 10 nM:
CCOc1ncccc1-c1ccc(N2CCN(C(=O)c3ccc(F)cc3C(F)F)C[C@H]2CC)c(C(=O)NCCNC)c1F [Compound 1-177, 6-[(2R)-4-[2-(difluoromethyl)-4-fluorobenzoyl]-2-ethylpiperazin-1-yl]-3-(2-ethoxypyridin-3-yl)-2-fluoro-N-[2-(methylamino)ethyl]benzamide]
CCOc1ncccc1-c1ccc(N2CCN(C(=O)c3ccc(F)cc3C(F)(F)F)C[C@H]2CC)c(C(=O)NCCNC)c1F [Compound 1-114, 3-(2-ethoxypyridin-3-yl)-6-[(2R)-2-ethyl-4-[4-fluoro-2-(trifluoromethyl)benzoyl]piperazin-1-yl]-2-fluoro-N-[2-(methylamino)ethyl]benzamide]
CCOc1ccccc1-c1ccc(N2CCN(C(=O)N3CCC[C@H]3C(F)(F)F)C[C@H]2CC)c(C(=O)N[C@H]2CCN(C)C2)n1 [Compound 1-375, 6-(2-ethoxyphenyl)-3-[(2R)-2-ethyl-4-[(2S)-2-(trifluoromethyl)pyrrolidine-1-carbonyl]piperazin-1-yl]-N-[(3S)-1-methylpyrrolidin-3-yl]pyridine-2-carboxamide]
CCOc1ncccc1-c1ccc(N2CCN(C(=O)c3ccc(OC)nc3C(F)(F)F)C[C@H]2CC)c(C(=O)NCCNC)c1F [Compound 1-164, 3-(2-ethoxypyridin-3-yl)-6-[(2R)-2-ethyl-4-[6-methoxy-2-(trifluoromethyl)pyridine-3-carbonyl]piperazin-1-yl]-2-fluoro-N-[2-(methylamino)ethyl]benzamide]
CCOc1ncccc1-c1ccc(N2CCN(C(=O)N3CCc4cccc(C(F)(F)F)c43)C[C@H]2CC)c(C(=O)N[C@H]2CCN(C)C2)n1 [Compound 1-389, 2′-ethoxy-5-[(2R)-2-ethyl-4-[7-(trifluoromethyl)-2,3-dihydro-1H-indole-1-carbonyl]piperazin-1-yl]-N-[(3S)-1-methylpyrrolidin-3-yl]-[2,3′-bipyridine]-6-carboxamide]
CCOc1ncccc1-c1ccc(N2CCN(C(=O)O[C@@H](c3ccccc3)C(F)(F)F)C[C@H]2CC)c(C(=O)N[C@@H]2CCNC2)n1 [Compound 1-377, (1S)-2,2,2-trifluoro-1-phenylethyl (3R)-4-(2′-ethoxy-6-{[(3R)-pyrrolidin-3-yl]carbamoyl}-[2,3′-bipyridin]-5-yl)-3-ethylpiperazine-1-carboxylate]
CCOc1ncccc1-c1ccc(N2CCN(C(=O)c3ccc(OC)nc3C(F)(F)F)C[C@H]2CC)c(C(=O)N[C@@H]2CN(C)C[C@H]2F)n1 [Compound 1-290, 2′-ethoxy-5-[(2R)-2-ethyl-4-[6-methoxy-2-(trifluoromethyl)pyridine-3-carbonyl]piperazin-1-yl]-N-[(3R,4R)-4-fluoro-1-methylpyrrolidin-3-yl]-[2,3′-bipyridine]-6-carboxamide]
CCOc1ccccc1-c1ccc(N2CCN(C(=O)c3ccccc3-c3ccc(CN)c(F)c3)C[C@H]2CC)c(C(=O)NCCN)c1 [Compound 1-26, N-(2-aminoethyl)-4-[(2R)-4-[4′-(aminomethyl)-3′-fluoro-[1,1′-biphenyl]-2-carbonyl]-2-ethylpiperazin-1-yl]-2′-ethoxy-[1,1′-biphenyl]-3-carboxamide]
CCOc1ncccc1-c1ccc(N2CCN(C(=O)C3(C(F)(F)F)CCCC3)C[C@H]2CC)c(C(=O)N[C@H]2CCN(C)C2)n1 [Compound 1-363, 2′-ethoxy-5-[(2R)-2-ethyl-4-[1-(trifluoromethyl)cyclopentanecarbonyl]piperazin-1-yl]-N-[(3S)-1-methylpyrrolidin-3-yl]-[2,3′-bipyridine]-6-carboxamide]
CCOc1ncccc1-c1ccc(N2CCN(C(=O)c3ccc(Cl)cc3C#N)C[C@H]2CC)c(C(=O)N[C@@H]2CCN(C)C2)n1 [Compound 1-260, 5-[(2R)-4-(4-chloro-2-cyanobenzoyl)-2-ethylpiperazin-1-yl]-2′-ethoxy-N-[(3R)-1-methylpyrrolidin-3-yl]-[2,3′-bipyridine]-6-carboxamide]
CCOc1ccc(C(=O)N2CCN(c3ccc(-c4cccnc4OCC)nc3C(=O)NCCNC)[C@H](CC)C2)c(C(F)(F)F)c1 [Compound 1-137, 2′-ethoxy-5-[(2R)-4-[4-ethoxy-2-(trifluoromethyl)benzoyl]-2-ethylpiperazin-1-yl]-N-[2-(methylamino)ethyl]-[2,3′-bipyridine]-6-carboxamide]
CCOc1ncccc1-c1ccc(N2CCN(C(=O)N3CCc4cccc(C#N)c43)C[C@H]2CC)c(C(=O)N[C@H]2CCN(C)C2)n1 [Compound 1-404, 5-[(2R)-4-(7-cyano-2,3-dihydro-1H-indole-1-carbonyl)-2-ethylpiperazin-1-yl]-2′-ethoxy-N-[(3S)-1-methylpyrrolidin-3-yl]-[2,3′-bipyridine]-6-carboxamide]
CCOc1ncccc1-c1ccc(N2CCN(C(=O)C3(C(F)(F)F)CCCC3)C[C@H]2CC)c(C(=O)N[C@@H]2CCNC2)n1 [Compound 1-263, 2′-ethoxy-5-[(2R)-2-ethyl-4-[1-(trifluoromethyl)cyclopentanecarbonyl]piperazin-1-yl]-N-[(3R)-pyrrolidin-3-yl]-[2,3′-bipyridine]-6-carboxamide]
CCOc1ccc(C(=O)N2CCN(c3ccc(-c4cccnc4OCC)nc3C(=O)NC3CN(C)C3)[C@H](CC)C2)c(C(F)(F)F)n1 [Compound 1-233, 2′-ethoxy-5-[(2R)-4-[6-ethoxy-2-(trifluoromethyl)pyridine-3-carbonyl]-2-ethylpiperazin-1-yl]-N-(1-methylazetidin-3-yl)-[2,3′-bipyridine]-6-carboxamide]
CCOc1ncccc1-c1ccc(N2CCN(C(=O)c3ccc(C)cc3C)C[C@H]2CC)c(C(=O)NCCN)c1 [Compound 1-60, N-(2-aminoethyl)-2-[(2R)-4-(2,4-dimethylbenzoyl)-2-ethylpiperazin-1-yl]-5-(2-ethoxypyridin-3-yl)benzamide]
CCOc1ncccc1-c1ccc(N2CCN(C(=O)c3ccc(OC)cc3C(F)(F)F)C[C@H]2CC)c(C(=O)N[C@@H]2CCNC2)c1 [Compound 1-143, 5-(2-ethoxypyridin-3-yl)-2-[(2R)-2-ethyl-4-[4-methoxy-2-(trifluoromethyl)benzoyl]piperazin-1-yl]-N-[(3R)-pyrrolidin-3-yl]benzamide]
CCOc1ncccc1-c1ccc(N2CCN(C(=O)c3ccc(Cl)cc3C#N)C[C@H]2CC)c(C(=O)NCCNC)n1 [Compound 1-171, 5-[(2R)-4-(4-chloro-2-cyanobenzoyl)-2-ethylpiperazin-1-yl]-2′-ethoxy-N-[2-(methylamino)ethyl]-[2,3′-bipyridine]-6-carboxamide]
CCOc1ncccc1-c1ccc(N2CCN(C(=O)c3ccccc3C(F)(F)F)C[C@H]2CC)c(C(=O)NCCN)c1 [Compound 1-62, N-(2-aminoethyl)-5-(2-ethoxypyridin-3-yl)-2-[(2R)-2-ethyl-4-[2-(trifluoromethyl)benzoyl]piperazin-1-yl]benzamide]
